Test results as given in ChEMBL document CHEMBL1144074, “Glycoside primers of Psittacanthus cucullaris” (J Nat Prod, 1999).
Calls of active or inactive are those of the source. No cut-off for these calls is given here.

System: CHO
Experiment: Stimulation of glycosaminoglycan chains formation in xylosyltransferase-deficient CHO pgsA-745 cells by liquid scintillation spectrophotometry
Format: functional, cell-based
Settings: Cricetulus griseus

| Compound | Activity |
| --- | --- |
| COc1cc2c(=O)oc3c(OC)c(O[C@@H]4OC[C@@H](O)[C@H](O)[C@H]4O)cc4c(=O)oc(c1OC)c2c34 | Active |
| COc1c(O)cc2c(=O)oc3c(OC)c(O[C@@H]4OC[C@@H](O)[C@H](O)[C@H]4O)cc4c(=O)oc1c2c34 | Active |
